Experimental data published in publication PMC4355294, “The Ingenious Structure of Central Rotor Apparatus in VoV1; Key for Both Complex Disassembly and Energy Coupling between V1 and Vo” (PLoS ONE, 2015).

Assays:
V1-E.h-DF = tested on: T1, V1-E.h-DF; test: enzyme-coupled ATP regenerating ATPase assay, Michaelis-Menten fit; assay type: biochemical, Thermus thermophilus; settings: 25°C; isolated V1
T1 construct: gene atpA
Description: enzyme-coupled ATP regenerating ATPase assay, Michaelis-Menten fit on V1-E.h-DF

V1-H.s-DF = tested on: T2, V1-H.s-DF; test: as above; assay type: biochemical, Thermus thermophilus; settings: 25°C; isolated V1
T2 construct: gene atpA
Description: enzyme-coupled ATP regenerating ATPase assay, Michaelis-Menten fit on V1-H.s-DF

SMILES: Nc1ncnc2c1ncn2[C@@H]1O[C@H](COP(=O)(O)OP(=O)(O)OP(=O)(O)O)[C@@H](O)[C@H]1O [ATP]
- Km (V1-E.h-DF): 760 ± 40 µM
- Km (V1-H.s-DF): 480 ± 40 µM
